Data reported in patent US20050158323A1, “Methods of killing tumor cells by targeting internal antigens exposed on apoptotic tumor cells” (Vaccinex, Inc., priority 2003, published 2005).
Like-named read-outs stand apart in the source and are kept apart here.

Key:
[1] = nude mice, cited from earlier work
Colau.C35 tumor cells = assay: Combination radioimmunotherapy and chemotherapy, second experiment (FIG. 6, Table 5); type: in vivo, Swiss nude mice
Description: Swiss nude mice were grafted with Colau.C35 cells on day 0. Chemotherapy: Cisplatin administered at 2 mg/kg i.v. on days 15 & 18; 5FU/LV administered at 180/120 mg/kg i.v. on day 18. Radioimmunotherapy: 300 μCi (˜50 μg) of ^131I-labeled murine 1B3 anti-C35 IgG was administered on day 21.
In a second experiment, the effect of combination radioimmunotherapy with ^131I labeled 1B3 anti-C35 monoclonal antibody and chemotherapy with cisplatin at 2 mg/kg on day 15 and 18 was tested in Swiss nude mice grafted with Colau.C35 tumor cells. Cispaltin was administered on days 15 and 18 following tumor graft. 300 μCi of ^131I-labeled 1B3 anti-C35 monoclonal antibody was administered on day 21. Tumor growth was followed for up to 10 weeks.
In the same experiment, separate groups of Swiss nude mice grafted with Colau.C35 tumor cells were treated with either 5-FluoroUracil (5FU) at 180 mg/kg, together with Leucovorin (LV) at 120 mg/kg or this same chemotherapy regimen administered on day 18 followed by 300 μCi of ^131I-labeled 1B3 anti-C35 monoclonal antibody administered on day 21.

[2] = system: rabbit anti-human C35 polyclonal antibody; assay: ELISA of rabbit C35 immune serum on C35 derived 15 amino acid peptides; type: binding
Text: Rabbit polyclonal antibodies were raised to recombinant C35 employing standard immunization methods well known in the art. Overlapping peptides 15 amino acids in length were synthesized corresponding to the 115 amino acid long C35 protein sequence beginning at each amino acid residue from 1 to 101. Peptides are named based on the C35 position of the amino terminus residue in each 15 amino acid peptide. In each peptide that overlapped the cysteine residues at positions 30, 33 and 112 of the natural C35 sequence, alanine was substituted for cysteine to avoid formation of disulfide crosslinked peptides.
Wells of 96 well Maxisorp microtiter plates were coated with either 2 μg C35 protein, or 14 μg or 40 μg of the indicated 15 amino acid peptide derived from the C35 protein sequence and binding of antibodies in the rabbit C35 immune serum was determined as described in detail below. Data in Table 11, below, is shown for the positive and negative controls and for those C35 derived peptides for which positive binding was detected. Variations in the level of peptide binding can be due to either differences in the concentration of specific antibody species, differences in antibody affinity or a combination thereof.
C35 peptide 15-mers in 100% DMSO, 10 mg/ml, were aliquotted into 1.5 ml tubes, 40 μg/tube, under sterile conditions, then speed vacuumed to remove DMSO. The peptides were resuspended in PBS, pH7.2, 1 ml/tube, mixed well and spun down. Each peptide concentration (“peptide solution”) was 40 μg/ml. Peptide solution should be stored at −20° C. until use. Once thawed, it should be kept at 4° C. for no more than 2 weeks.
For 14 μg/ml peptide coated plates, 65 μl PBS, pH7.2 per well was added, followed by 35 μl peptide solution per well (for a total volume of 100 μl/well), and mixed well. For 40 μg/ml peptide coated plates, 100 μl of peptide solution was placed directly on the plate, 100 μl/well. Control C35 protein was diluted into PBS, pH7.2 to 2 μg/ml and added to the plates, 100 μl/well. Coated plates were incubated at room temperature for 2 hours, then 4° C. overnight.
Each plate was washed 3 times on a plate washer. […] The secondary antibody, HRP (horseradish peroxidase conjugated goat anti-rabbit Fc polyclonal antibody from Zymed, was diluted at a 1:20,000 dilution into assay diluent and added to the plates, 100 μl/well. The plates were incubated at room temperature for 2 hours. Plates were washed 7 times on a plate washer. Substrate was added as per the kit manufacturers instructions and incubated at room temperature in the dark for 15 minutes. The reaction was stopped by adding 2N H2SO4, 100 μl/well. Absorbance at 450-570 nm was read immediately.

[3] = target: T1, recombinant human C35 (rhC35) (Homo sapiens, UniProt Q9BRT3); assay: Epitope localization by Western blot of Lys-C digested rhC35; type: binding; details: native C35 sequence numbering; 1 μg/ml antibody
T1 construct: made in house; host or cells: E. coli
T1 sequence (Q9BRT3 1-115): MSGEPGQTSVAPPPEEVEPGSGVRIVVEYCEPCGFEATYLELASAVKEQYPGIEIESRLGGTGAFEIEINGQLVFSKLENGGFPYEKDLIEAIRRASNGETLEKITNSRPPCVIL
Text: (§1) To localize the epitope specificity of 1B3 and 1F2 antibodies, recombinant human C35 (rhC35) synthesized with a 6× His tag in E. coli was digested with Lys-C endoproteinase. This enzyme cuts after lysine (K) residues in the protein sequence. […] The full sequence of rhC35, including the amino terminal 6× His tag addition is shown. Amino acid positions are numbered relative to the amino terminal methionine (M) of the native human sequence. Note that digestion at the first and third lysine followed by negatively charged residues is inefficient and some longer combination fragments may be generated. Lys-C endoproteinase was added to purified rhC35 at a […] weight ratio and incubated for 18 hours at 37° C. in 25 mM Tris, pH 8.0. The digest was ethanol precipitated and resolubilized in reducing Tricine sample buffer. After heating 5 minutes at 100° C., samples were separated by electrophoresis on a 16% Tricine gel (Invitrogen). Peptides were transferred to PVDF membranes and the blots depicted in FIG. 10 were either stained with Coomassie blue (lanes 1-3 of both left and right panels) to detect all peptides or processed with one of the following: 1 μg/ml of the murine 1F2 anti-C35 antibody followed by alkaline phosphatase conjugated goat anti-mouse antibody (lane 4 of left panel); 1 μg/ml of the 1B3 anti-C35 immunoglobulin variable regions linked to human constant regions (MAb11) followed by alkaline phosphatase conjugated goat anti-human antibody (lane 5 of left panel); or anti-6× His tag mouse antibody (Amersham) followed by alkaline phosphatase conjugated goat anti-mouse antibody (lane 4 and 5 of right panel). BCIP/NBT substrate was added and developed to detect the secondary reagents. Molecular weight markers are indicated in the flanking lanes of both panels.
(§2) In FIG. 10, the indicated band A migrates at the position of undigested rhC35. Note that band B stains with 1F2 but not MAb11 (1B3) anti-C35 antibody while band C stains with neither 1F2 nor MAb11 (1B3) antibody. Since bands B and C both do stain with anti-6× His tag antibody to the 6× His tag at the amino terminus of rhC35, it may be concluded that both fragments lack C-terminal peptide fragments. […] This epitope is not required for staining with 1F2.

C35 protein [4] = target: T2, C35 protein (Homo sapiens, UniProt Q9BRT3); assay: ELISA and Western Blot of hybridoma antibodies; type: binding; details: ELISA and Western Blot assays
T2 sequence (Q9BRT3 1-115): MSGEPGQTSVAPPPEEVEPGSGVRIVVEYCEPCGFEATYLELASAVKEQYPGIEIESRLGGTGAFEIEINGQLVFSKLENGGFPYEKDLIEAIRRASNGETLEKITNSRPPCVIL
Description: (§3) Hybridoma cell lines IF2.4.1 and 1B3.6.1, specific for C35 polypeptides, were prepared using hybridoma technology. (Kohler et al., Nature 256:495 (1975); Kohler et al., Eur. J. Immunol. 6:511 (1976); Kohler et al., Eur. J. Immunol. 6:292 (1976); Hammerling et al., in: Monoclonal Antibodies and T-Cell Hybridomas, Elsevier, N.Y., pp. 571-681 (1981)). Briefly, hybridoma cell lines were generated using standard PEG fusion to the non-secreting myeloma cell line NS-1 (P3/NS1/1-AG4-1, ATCC #TIB-18) of splenocytes from BALB/c mice immunized with syngeneic BCA34 fibroblast tumor cells transduced to overexpress C35. Following PEG fusion to NS-1, the hybridomas were grown in methylcellulose semi-solid media. Approximately 2 weeks later, hybridoma colonies were isolated into 96 well plates and individual supernatants were tested for reactivity with C35 by ELISA, Western blot, and immunohistochemistry. Positive hybridomas colonies were subcloned and screened for reactivity twice to ensure clonality. Antibodies were isolated from hybridoma supernatants by protein G affinity purification using standard methods. […] In addition, we have developed intracellular staining flow cytometry assays for quantitative analysis using antibodies from hybridoma cell line 1F2 conjugated to Alexa-647 flourochrome. Each of these antibodies is distinct, yet both are specific for C35 protein. […]

C35 protein [5] = target: T2, C35 protein; assay: Competitive binding ELISA; details: 1F2 versus 1B3
Description: as §3

[6] = target: T3, recombinant human C35 (rhC35) (Homo sapiens, UniProt Q9BRT3); assay: Epitope localization by Western blot of Lys-C digested rhC35; type: binding; details: Western blot, 1 μg/ml antibody
T3 construct: made in house; host or cells: E. coli
T3 sequence (Q9BRT3 1-52): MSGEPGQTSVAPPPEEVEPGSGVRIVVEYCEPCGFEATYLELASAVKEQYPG
Text: as §1, §2

[7] = target: T4, recombinant human C35 (rhC35) (Homo sapiens, UniProt Q9BRT3); assay: as above; type: binding; details: Western blot, 1 μg/ml antibody; remark: listed apart in the source
T4 construct: made in house; host or cells: E. coli
T4 sequence (Q9BRT3 1-104): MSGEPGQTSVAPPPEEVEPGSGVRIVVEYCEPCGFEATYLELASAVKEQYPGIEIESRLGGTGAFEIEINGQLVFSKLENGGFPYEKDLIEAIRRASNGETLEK
Text: as §1, §2

[8] = literature values (footnotes 3-5)
[9] = 14 μg/ml peptide coated plates, 100 ng/ml primary antibody (C35 protein control coated at 2 μg/ml)
[10] = 40 μg/ml peptide coated plates, 1 μg/ml primary antibody (C35 protein control coated at 2 μg/ml)
[11] = non-toxic dose at indicated schedule

CCC1=C[C@@H]2CN(C1)Cc1c([nH]c3ccccc13)[C@@](C(=O)OC)(c1cc3c(cc1OC)N(C)[C@H]1[C@@](O)(C(=O)OC)[C@H](OC(C)=O)[C@]4(CC)C=CCN5CC[C@]31[C@@H]54)C2 [Vinorelbine]
Maximum Tolerated Dose [1, 8]: 20 mg/kg

N.N.[Cl][Pt][Cl] [Cisplatin alone, cisplatin]
inhibition of Colau.C35 tumor growth (Colau.C35 tumor cells; cisplatin 2 mg/kg days 15 and 18, 5FU/LV 180/120 mg/kg day 18, 300 μCi ^131I-1B3 day 21): some inhibition
LCK = Log Cell Kill = TDD/3.32 (Colau.C35 tumor cells; same regimens): 0.20
T−C = difference in time for treated and control tumors to reach a given volume (Colau.C35 tumor cells; tumor volume 1200 mm^3, cisplatin 2 mg/kg days 15 and 18, 5FU/LV 180/120 mg/kg day 18, 300 μCi ^131I-1B3 day 21): 5 days
TDD = Tumor doubling delay = T−C/tumor volume doubling time of untreated (Colau.C35 tumor cells; tumor volume 1200 mm^3, same regimens): 0.66

CCc1c2c(nc3ccc(OC(=O)N4CCC(N5CCCCC5)CC4)cc13)-c1cc3c(c(=O)n1C2)COC(=O)[C@]3(O)CC [Irinotecan]
Maximum Tolerated Dose [1, 8]: 15 mg/kg

FPYEKDLLEAIRRAS [Peptide P83]
Absorbance @ 450-570 nm [2, 9]: 0.025
Absorbance @ 450-570 nm [2, 10]: 0.19

Nc1ccn([C@@H]2O[C@H](CO)[C@@H](O)C2(F)F)c(=O)n1 [Gemcitabine]
Maximum Tolerated Dose [1, 11]: No toxicity^5

O=P1(N(CCCl)CCCl)NCCCO1 (centres unmarked) [Cyclophosphamide]
Maximum Tolerated Dose [1, 11]: No toxicity^2

B1: 1B3: mouse monoclonal anti-C35 antibody from hybridoma 1B3, gamma1 isotype, kappa light chain; VH SEQ ID NO:8, VK SEQ ID NO:10 (antibody, listed as Mus sp., V domains shown)
VH: EVQLQESGPSLVKPSQTLSLTCSVTGDSITSGYWNWIRKFPGNKLEYVGYISYSGGTYYNPSLKSRISITRDTSKNHYYLQLNSVTTEDTATYYCARGAYYGGAFFPYFDVWGAGTTVTVSS
VL: DVQITQSPSFLAASPGETITINCRASKYISKHLVWYQEKPGETKKLLIYSGSTLQSGLPSRFSGSGSGTDFTLTISSLEPEDFAMYYCQQHNEYPLTFGAGTKLELK
epitope specificity [3]: residues 105-115
binding to recombinant C35 protein (C35 protein [4]): specifically bind recombinant C35 protein
epitope comparison by competition (C35 protein [5]): bind different epitopes of the C35 protein

B2: MAb11 (1B3): 1B3 anti-C35 immunoglobulin variable regions linked to human constant regions (antibody, V domains shown)
VH: EVQLQESGPSLVKPSQTLSLTCSVTGDSITSGYWNWIRKFPGNKLEYVGYISYSGGTYYNPSLKSRISITRDTSKNHYYLQLNSVTTEDTATYYCARGAYYGGAFFPYFDVWGAGTTVTVSS
VL: DVQITQSPSFLAASPGETITINCRASKYISKHLVWYQEKPGETKKLLIYSGSTLQSGLPSRFSGSGSGTDFTLTISSLEPEDFAMYYCQQHNEYPLTFGAGTKLELK
staining of approximately 8 kDa band C (in addition lacks residues 53-104) [6]: neither
staining of approximately 15 kDa band B (lacks C35 residues 105-115) [7]: not

B3: C35 protein: control C35 protein coated at 2 μg/ml, positive control of the peptide ELISA (protein, UniProt Q9BRT3 2-112, looked up)
Migration and invasion …: SGEPGQTSVAPPPEEVEPGSGVRIVVEYCEPCGFEATYLELASAVKEQYPGIEIESRLGGTGAFEIEINGQLVFSKLENGGFPYEKDLIEAIRRASNGETLEKITNSRPPC
Absorbance @ 450-570 nm [2, 9]: 3.765
Absorbance @ 450-570 nm [2, 10]: 3.5225
